Data: patent publication US10501805B2, “Methods for determining responsiveness to MEK/ERK inhibitors” (CROWN BIOSCIENCE, INC. (TAICANG), priority 2014, dated 2019)

Columns and labels:
Assay in all cases: CellTiter-Glo cell viability, IC50 determination
Type in all cases: cell-based
MDA-MB-231 = conditions: Homo sapiens, 72 h; MDA-MB-231 cell line; 3-day CTG assay; read-out: Absolute IC50
Protocol: (§1) All the cells will be cultured in the media supplemented with 10% FBS except for which are marked specially, in the temperature of 37° C., 5% CO2 and 95% humidity.
(§2) Cell viability is assayed by using CellTiter-Glo® Luminescent Cell Viability Assay Kit (Cat. No.: G7572, Promega. Store at −20° C.). To prepare the CellTiter_Glo Reagent, the CellTiter-Glo Buffer was thawed and equilibrated to room temperature prior to use. For convenience the CellTiter-Glo Buffer may be thawed and stored at room temperature for up to 48 hours prior to use. The lyophilized CellTiter-Glo Substrate is equilibrated to room temperature prior to use. The appropriate volume (100 ml) of CellTiter-Glo Buffer is transferred into the amber bottle containing CellTiter-Glo Substrate to reconstitute the lyophilized enzyme/substrate mixture, which forms the CellTiter-Glo Reagent. In certain cases, the entire liquid volume of the CellTiter-Glo Buffer bottle may be added to the CellTiter-Glo Substrate vial. Mix by gently vortexing, swirling or by inverting the contents to obtain a homogeneous solution. The CellTiter-Glo Substrate should go into solution easily in less than one minute.
(§3) The day before the experiment (Day −1), cells were dissociated during the logarithmic growth period with Cell Disassociation Buffer (Gibco 13151-014) and mixed with appropriate cell media and centrifuge at 1000 rpm for 3 minutes. The cells were re-suspended and counted using Countstar before adjusting cell concentrations to optimized density (i.e. 4.44×10^4 cells/ml) with respective culture medium listed in Table 1 for 3-day CTG assay (The cell density was optimized before actual study; cell density used in the test may vary for different cell lines). 90 μl cell suspensions were added to two 96-well plates (plates A and B) with the final cell density of 4×10^3 cells/well for 3-day CTG assay (the cell density was optimized before actual study; cell density used in the test may vary for different cell lines). The plate A and B group were incubated for overnight in humidified incubator at 37° C. with 5% CO2.
(§4) On Day 0, for plate A group, 10 μl culture medium was added to each well for T0 reading. CellTiter-Glo® Reagent was added at equal volume of cell culture medium present in each well (e.g., add 100 μl of reagent to 100 μl of medium containing cells for a 96-well plate). Contents were mixed for 2 minutes on an orbital shaker to facilitate cell lysis. The plate was allowed to incubate at room temperature for 10 minutes to stabilize luminescent signal. Backseal black sticker was added to the bottom of each plate. Luminescence was recorded using EnVision Multi Label Reader. This formed the basis for T0 value.
(§5) On Day 0, the test articles and positive controls were dissolved at the concentration indicated at Test Article Dilution map. 100× solution in PBS was prepared and then diluted with appropriate culture media (1:10) into 10×working solutions. 10 μl (10×) drug solutions were dispensed in each well (triplicate for each drug concentration) of the plate B group according to plate inoculation map. The test plates were incubated for […] in the humidified incubator at 37° with 5% CO2.
(§6) On Day 3, CellTiter-Glo® Reagent was added at equal volume of cell culture medium present in each well (e.g., add 100 μl of reagent to 100 μl of medium containing cells for a 96-well plate). Contents were mixed for 2 minutes on an orbital shaker to induce cell lysis. The plate was allowed to incubate at room temperature for 10 minutes to stabilize luminescent signal. Backseal black sticker was placed to the bottom of each plate. Luminescence was recorded using EnVision Multi Label Reader.
(§7) In order to calculate IC50s, a dose-response curve was fitted using a nonlinear regression model with a sigmoidal dose response. The formula for calculating surviving rate was shown below; Absolute IC50 is calculated where Y axis set at 50% using GraphPad Prism 5.0. Software. […]

KM12L4 = conditions: KM 12L4, 72 h; KM12L4 cell line; 3-day CTG assay; read-out: Absolute IC50
Protocol: as §1, §2, §3, §4, §5, §6, §7

KYSE150 = conditions: Homo sapiens, KYSE-150, 72 h; KYSE150 cell line; 3-day CTG assay; read-out: Absolute IC50
Protocol: as §1, §2, §3, §4, §5, §6, §7

SW620 = conditions: Homo sapiens, SW-620, 72 h; SW620 cell line; 3-day CTG assay; read-out: Absolute IC50
Protocol: as §1, §2, §3, §4, §5, §6, §7

HCT-8 = conditions: Homo sapiens, 72 h; HCT-8 cell line; 3-day CTG assay; read-out: Absolute IC50
Protocol: as §1, §2, §3, §4, §5, §6, §7

HT29 = conditions: Homo sapiens, HT-29, 72 h; HT29 cell line; 3-day CTG assay; read-out: Absolute IC50
Protocol: as §1, §2, §3, §4, §5, §6, §7

LS513 = conditions: Homo sapiens, LS-513, 72 h; LS513 cell line; 3-day CTG assay; read-out: Absolute IC50
Protocol: as §1, §2, §3, §4, §5, §6, §7

LoVo = conditions: Homo sapiens, 72 h; LoVo cell line; 3-day CTG assay; read-out: Absolute IC50
Protocol: as §1, §2, §3, §4, §5, §6, §7

SNU-1 = conditions: Homo sapiens, SNU1, 72 h; SNU-1 cell line; 3-day CTG assay; read-out: Absolute IC50
Protocol: as §1, §2, §3, §4, §5, §6, §7

Calu6 = conditions: Homo sapiens, Calu-6, 72 h; Calu6 cell line; 3-day CTG assay; read-out: Absolute IC50
Protocol: as §1, §2, §3, §4, §5, §6, §7

MIAPaCa2 = conditions: Homo sapiens, MIA PaCa-2, 72 h; MIAPaCa2 cell line; 3-day CTG assay; read-out: Absolute IC50
Protocol: as §1, §2, §3, §4, §5, §6, §7

HCC4006 = conditions: Homo sapiens, 72 h; HCC4006 cell line; 3-day CTG assay; read-out: Absolute IC50
Protocol: as §1, §2, §3, §4, §5, §6, §7

HCT-15 = conditions: Homo sapiens, 72 h; HCT-15 cell line; 3-day CTG assay; read-out: Absolute IC50
Protocol: as §1, §2, §3, §4, §5, §6, §7

NCI-H358 = conditions: Homo sapiens, 72 h; NCI-H358 cell line; 3-day CTG assay; read-out: Absolute IC50
Protocol: as §1, §2, §3, §4, §5, §6, §7

HCT116 = conditions: Homo sapiens, HCT-116, 72 h; HCT116 cell line; 3-day CTG assay; read-out: Absolute IC50
Protocol: as §1, §2, §3, §4, §5, §6, §7

22RV1 = conditions: Homo sapiens, 72 h; 22RV1 cell line; 3-day CTG assay; read-out: Absolute IC50
Protocol: as §1, §2, §3, §4, §5, §6, §7

| SMILES | IC50 (MDA-MB-231) | IC50 (KM12L4) | IC50 (KYSE150) | IC50 (SW620) | IC50 (HCT-8) | IC50 (HT29) | IC50 (LS513) | IC50 (LoVo) | IC50 (SNU-1) | IC50 (Calu6) | IC50 (MIAPaCa2) | IC50 (HCC4006) | IC50 (HCT-15) | IC50 (NCI-H358) | IC50 (HCT116) | IC50 (22RV1) |
| --- | --- | --- | --- | --- | --- | --- | --- | --- | --- | --- | --- | --- | --- | --- | --- | --- |
| O=C(Nc1ccc2[nH]nc(-c3ccncc3)c2c1)[C@@H]1CCN(CC(=O)N2CCN(c3ccc(-c4ncccn4)cc3)CC2)C1 [SCH772984, (R)-1-(2-oxo-2-(4-(4-(pyrimidin-2-yl)phenyl)piperazin-1-yl)ethyl)-N-(3-(pyridin-4-yl)-1H-indazol-5-yl)pyrrolidine-3-carboxamide] | 32300 nM | 360 nM | 1720 nM | 260 nM | 1270 nM | 230 nM | 780 nM | 410 nM | 640 nM | 560 nM | 210 nM | 2770 nM | 15600 nM | 520 nM | 450 nM | 5010 nM |
| CC(=O)Nc1cccc(-n2c(=O)n(C3CC3)c(=O)c3c(Nc4ccc(I)cc4F)n(C)c(=O)c(C)c32)c1 [Trametinib, N-(3-{3-Cyclopropyl-5-[(2-fluoro-4-iodophenyl)amino]-6,8-dimethyl-2,4,7-trioxo-3,4,6,7-tetrahydropyrido[4,3-d]pyrimidin-1(2H)-yl}phenyl)acetamide] | 24000 nM | 10 nM | 5280 nM | 10 nM | 50 nM | 10 nM | 10 nM | 110 nM | 100 nM | 140 nM | 30 nM | 410 nM | 29300 nM | 50 nM | 40 nM | 202000 nM |
